One assay concerns the target T1, HCV helicase (helicase domain of NS3 protein) (UniProt P27958).
T1 construct: The helicase domain of NS3 protein was expressed in a baculovirus system in HF insect cell line; fused on or other part: Histidine tag, inferred from the Talon cobalt column purification ('histidine repetitions')
The assay can be described thus: Fluorometric (FRET) antihelicase activity assay. Type of assay: biochemical, hepatitis C virus (HCV). Particulars: concentration inhibiting 50% of helicase activity; 10 nM enzyme pre-incubated 15 min with derivative, unwinding at 30° C. for 60 min. The source says:
A reaction takes place on a 96- or 384-well microtitration plate and a course of the reaction is observed in real time.
The helicase domain of NS3 protein was expressed in a baculovirus system in HF insect cell line.
In this assay, FAM fluorescence is quenched by fluorescence energy transfer (FRET) to the BHQ molecule, while unwinding of double-stranded DNA structure leads to decrease of FRET phenomenon and increase of FAM fluorescence signal. The assay allows for examining a large number of samples, i.e., different helicase inhibitors at various concentrations and with many repetitions, in standardized conditions. The reaction is conducted in a microtitration plate. The reaction process is observed in real time.
The enzyme (10 nM) was pre-incubated with the tested derivatives dissolved in DMSO (0.005 to 20 μM concentration) without ATP for 15 min at room temperature. The reaction of DNA unwinding was started by addition of ATP and was carried out at 30° C. for 60 min in a Synergy HTi (Biotek) fluorometer. […] Fluorescence was measured every 2 mins.
The enzyme activity was calculated as the initial reaction velocity from the linear part of reaction curve (fluorescence growth as a function of time) using a linear regression method. Inhibition was calculated as comparison of activity of the helicase incubated with inhibitor to activity of the helicase incubated without inhibitor, but with a proper concentration of DMSO, expressed in percent.
T1 sequence (P27958 1027-1657): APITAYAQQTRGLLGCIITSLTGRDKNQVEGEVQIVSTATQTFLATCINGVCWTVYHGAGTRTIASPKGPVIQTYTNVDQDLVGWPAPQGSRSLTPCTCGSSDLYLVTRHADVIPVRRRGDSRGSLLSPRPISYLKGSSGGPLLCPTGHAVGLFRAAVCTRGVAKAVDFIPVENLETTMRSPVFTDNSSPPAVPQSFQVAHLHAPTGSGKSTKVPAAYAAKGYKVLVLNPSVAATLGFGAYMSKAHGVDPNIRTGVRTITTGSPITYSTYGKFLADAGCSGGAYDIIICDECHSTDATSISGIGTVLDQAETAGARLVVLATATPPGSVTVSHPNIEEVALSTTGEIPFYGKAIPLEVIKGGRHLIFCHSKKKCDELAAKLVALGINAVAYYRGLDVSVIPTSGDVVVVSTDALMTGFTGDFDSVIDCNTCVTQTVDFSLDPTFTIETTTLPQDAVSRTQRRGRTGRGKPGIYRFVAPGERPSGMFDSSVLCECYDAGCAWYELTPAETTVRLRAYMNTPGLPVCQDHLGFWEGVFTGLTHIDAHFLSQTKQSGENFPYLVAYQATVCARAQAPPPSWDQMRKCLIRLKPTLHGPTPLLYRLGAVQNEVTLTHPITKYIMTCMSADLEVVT
Regarding `COc1cccc2c1C(=O)c1c(O)c3c(c(O)c1C2=O)CC(O)(C(C)=O)CC3OC1CC(N=CN2CCN(C)CC2)C(O)C(C)O1` (stereo not shown) [Derivative 76], the IC50 – broadly, the concentration that inhibits the measured activity by half – was found to be 770 nM.

Still in this assay, the particulars now being: concentration inhibiting 50% of helicase activity; 10 nM enzyme pre-incubated 15 min with derivative, unwinding at 30° C. for 60 min; read-out: IC50.
Consider `COc1cccc2c1C(=O)c1c(O)c3c(c(O)c1C2=O)CC(O)(C(C)=O)CC3OC1CC(N=CN2CCCC2)C(O)C(C)O1` (stereo not shown) [Derivative 1], for which the IC50 stood at 1840 nM.

For `COc1cccc2c1C(=O)c1c(O)c3c(c(O)c1C2=O)CC(O)(C(C)=O)CC3OC1CC(N=CN2CCOCC2)C(O)C(C)O1` (stereo not shown) [Derivative 3], the IC50 came to 3170 nM.

Consider `COc1cccc2c1C(=O)c1c(O)c3c(c(O)c1C2=O)CC(O)(C(C)=O)CC3OC1CC(N=CN2CCCCC2)C(O)C(C)O1` (stereo not shown) [Derivative 5], for which the IC50 turned out to be 3500 nM.

With `COc1cccc2c1C(=O)c1c(O)c3c(c(O)c1C2=O)CC(O)(C(C)=O)CC3OC1CC(N=CN2CCCCCC2)C(O)C(C)O1` (stereo not shown) [Derivative 7], the IC50 came to 1330 nM.

Take `COc1cccc2c1C(=O)c1c(O)c3c(c(O)c1C2=O)CC(O)(C(C)=O)CC3OC1CC(N=CN2CCN(C)CC2)C(O)C(C)O1` (stereo not shown) [Derivative 8]: the IC50 was 1960 nM.

As to `CCN(C=NC1CC(OC2CC(O)(C(C)=O)Cc3c(O)c4c(c(O)c32)C(=O)c2c(OC)cccc2C4=O)OC(C)C1O)CC` (stereo not shown) [Derivative 12], the IC50 came to 1580 nM.

With `COc1cccc2c1C(=O)c1c(O)c3c(c(O)c1C2=O)CC(O)(C(C)=O)CC3OC1CC(N=C(C)N2CCCC2)C(O)C(C)O1` (stereo not shown) [Derivative 18], the IC50 was 410 nM.

For `COc1cccc2c1C(=O)c1c(O)c3c(c(O)c1C2=O)CC(O)(C(C)=O)CC3OC1CC(N=C(C)N2CCCCC2)C(O)C(C)O1` (stereo not shown) [Derivative 22], the IC50 is 700 nM.

On to `COc1cccc2c1C(=O)c1c(O)c3c(c(O)c1C2=O)CC(O)(C(C)=O)CC3OC1CC(N=C(C)N2CCN(C)CC2)C(O)C(C)O1` (stereo not shown) [Derivative 25], for which the IC50 was found to be 6250 nM.

`COc1cccc2c1C(=O)c1c(O)c3c(c(O)c1C2=O)CC(O)(C(C)=O)CC3OC1CC(N=C(C)N2CCc3ccccc32)C(O)C(C)O1` (stereo not shown) [Derivative 27]: the IC50 is 11300 nM.

On to `COc1cccc2c1C(=O)c1c(O)c3c(c(O)c1C2=O)CC(O)(C(=O)CO)CC3OC1CC(N=CN2CCCC2)C(O)C(C)O1` (stereo not shown) [Derivative 35], for which the IC50 was determined as 550 nM.

In the case of `COc1cccc2c1C(=O)c1c(O)c3c(c(O)c1C2=O)CC(O)(C(=O)CO)CC3OC1CC(N=CN2CCOCC2)C(O)C(C)O1` (stereo not shown) [Derivative 37], the IC50 was 2120 nM.

Regarding `COc1cccc2c1C(=O)c1c(O)c3c(c(O)c1C2=O)CC(O)(C(=O)CO)CC3OC1CC(N=CN2CCCCC2)C(O)C(C)O1` (stereo not shown) [Derivative 39], the IC50 came to 2840 nM.

For `COc1cccc2c1C(=O)c1c(O)c3c(c(O)c1C2=O)CC(O)(C(=O)CO)CC3OC1CC(N=CN2CCCCCC2)C(O)C(C)O1` (stereo not shown) [Derivative 41], the IC50 came out at 1610 nM.

Regarding `COc1cccc2c1C(=O)c1c(O)c3c(c(O)c1C2=O)CC(O)(C(=O)CO)CC3OC1CC(N=CN2CCN(C)CC2)C(O)C(C)O1` (stereo not shown) [Derivative 42], the IC50 is 980 nM.

On to `CCN(C=NC1CC(OC2CC(O)(C(=O)CO)Cc3c(O)c4c(c(O)c32)C(=O)c2c(OC)cccc2C4=O)OC(C)C1O)CC` (stereo not shown) [Derivative 46], for which the IC50 stood at 1320 nM.

For `COc1cccc2c1C(=O)c1c(O)c3c(c(O)c1C2=O)CC(O)(C(=O)CO)CC3OC1CC(N=C(C)N2CCCC2)C(O)C(C)O1` (stereo not shown) [Derivative 52], the IC50 came to 500 nM.

Turning to `COc1cccc2c1C(=O)c1c(O)c3c(c(O)c1C2=O)CC(O)(C(=O)CO)CC3OC1CC(N=C(C)N2CCCCC2)C(O)C(C)O1` (stereo not shown) [Derivative 56], the IC50 was found to be 3350 nM.

For `COc1cccc2c1C(=O)c1c(O)c3c(c(O)c1C2=O)CC(O)(C(=O)CO)CC3OC1CC(N=C(C)N2CCN(C)CC2)C(O)C(C)O1` (stereo not shown) [Derivative 59], the IC50 was 420 nM.

Consider `COc1cccc2c1C(=O)c1c(O)c3c(c(O)c1C2=O)CC(O)(C(C)=O)CC3OC1CC(N=CN2CCCC2)C(O)C(C)O1` (stereo not shown) [Derivative 69], for which the IC50 stood at 1080 nM.

With `COc1cccc2c1C(=O)c1c(O)c3c(c(O)c1C2=O)CC(O)(C(C)=O)CC3OC1CC(N=CN2CCOCC2)C(O)C(C)O1` (stereo not shown) [Derivative 71], the IC50 came out at 3130 nM.

With `COc1cccc2c1C(=O)c1c(O)c3c(c(O)c1C2=O)CC(O)(C(C)=O)CC3OC1CC(N=CN2CCCCC2)C(O)C(C)O1` (stereo not shown) [Derivative 73], the IC50 was determined as 2390 nM.

Consider `COc1cccc2c1C(=O)c1c(O)c3c(c(O)c1C2=O)CC(O)(C(C)=O)CC3OC1CC(N=CN2CCN(C)CC2)C(O)C(C)O1` (stereo not shown) [Derivative 76], for which the IC50 worked out at 760 ± 210 nM.

In the case of `COc1cccc2c1C(=O)c1c(O)c3c(c(O)c1C2=O)CC(O)(C(C)=O)CC3OC1CC(N=CN2CCN(C)CC2)C(O)C(C)O1` (stereo not shown) [Derivative 77], the half-inhibitory concentration (IC50) came out at 780 ± 180 nM.

As to `COc1cccc2c1C(=O)c1c(O)c3c(c(O)c1C2=O)CC(O)(C(C)=O)CC3OC1CC(N=CN2CCc3ccccc32)C(O)C(C)O1` (stereo not shown) [Derivative 78], the IC50 amounted to 450 nM.

As for `CCN(C=NC1CC(OC2CC(O)(C(C)=O)Cc3c(O)c4c(c(O)c32)C(=O)c2c(OC)cccc2C4=O)OC(C)C1O)CC` (stereo not shown) [Derivative 80], the concentration for half-maximal inhibition (IC50) amounted to 300 nM.

Consider `CCCCN(C=NC1CC(OC2CC(O)(C(C)=O)Cc3c(O)c4c(c(O)c32)C(=O)c2c(OC)cccc2C4=O)OC(C)C1O)CCCC` (stereo not shown) [Derivative 84], for which the IC50 was 2050 nM.

With `COc1cccc2c1C(=O)c1c(O)c3c(c(O)c1C2=O)CC(O)(C(C)=O)CC3OC1CC(N=C(C)N2CCOCC2)C(O)C(C)O1` (stereo not shown) [Derivative 89], the IC50 came to 50 nM.

Consider `COc1cccc2c1C(=O)c1c(O)c3c(c(O)c1C2=O)CC(O)(C(C)=O)CC3OC1CC(N=C(C)N2CCCCC2)C(O)C(C)O1` (stereo not shown) [Derivative 91], for which the IC50 turned out to be 30 nM.

For `COc1cccc2c1C(=O)c1c(O)c3c(c(O)c1C2=O)CC(O)(C(C)=O)CC3OC1CC(N=C(C)N2CCCCCC2)C(O)C(C)O1` (stereo not shown) [Derivative 93], the IC50 turned out to be 990 nM.

On to `COc1cccc2c1C(=O)c1c(O)c3c(c(O)c1C2=O)CC(O)(C(C)=O)CC3OC1CC(N=C(C)N2CCN(C)CC2)C(O)C(C)O1` (stereo not shown) [Derivative 95], for which the concentration for half-maximal inhibition (IC50) came to 90 ± 10 nM.

In the case of `CCN(CC)C(C)=NC1CC(OC2CC(O)(C(C)=O)Cc3c(O)c4c(c(O)c32)C(=O)c2c(OC)cccc2C4=O)OC(C)C1O` (stereo not shown) [Derivative 98], the IC50 was 180 nM.

Turning to `CCCN(CCC)C(C)=NC1CC(OC2CC(O)(C(C)=O)Cc3c(O)c4c(c(O)c32)C(=O)c2c(OC)cccc2C4=O)OC(C)C1O` (stereo not shown) [Derivative 100], the IC50 is 1900 nM.

Regarding `COc1cccc2c1C(=O)c1c(O)c3c(c(O)c1C2=O)CC(O)(C(=O)CO)CC3OC1CC(N=CN2CCOCC2)C(O)C(C)O1` (stereo not shown) [Derivative 107], the IC50 worked out at 970 nM.

On to `COc1cccc2c1C(=O)c1c(O)c3c(c(O)c1C2=O)CC(O)(C(=O)CO)CC3OC1CC(N=CN2CCCCC2)C(O)C(C)O1` (stereo not shown) [Derivative 109], for which the IC50 was 760 nM.

For the molecule `COc1cccc2c1C(=O)c1c(O)c3c(c(O)c1C2=O)CC(O)(C(=O)CO)CC3OC1CC(N=CN2CCCCCC2)C(O)C(C)O1` (stereo not shown) [Derivative 111], the IC50 came out at 1720 nM.

As for `COc1cccc2c1C(=O)c1c(O)c3c(c(O)c1C2=O)CC(O)(C(=O)CO)CC3OC1CC(N=CN2CCN(C)CC2)C(O)C(C)O1` (stereo not shown) [Derivative 112], the IC50 was 1530 nM.

In the case of `COc1cccc2c1C(=O)c1c(O)c3c(c(O)c1C2=O)CC(O)(C(=O)CO)CC3OC1CC(N=CN2CCc3ccccc32)C(O)C(C)O1` (stereo not shown) [Derivative 114], the IC50 turned out to be 140 nM.

Consider `CCN(C=NC1CC(OC2CC(O)(C(=O)CO)Cc3c(O)c4c(c(O)c32)C(=O)c2c(OC)cccc2C4=O)OC(C)C1O)CC` (stereo not shown) [Derivative 116], for which the IC50 is 2170 nM.

`CCCN(C=NC1CC(OC2CC(O)(C(=O)CO)Cc3c(O)c4c(c(O)c32)C(=O)c2c(OC)cccc2C4=O)OC(C)C1O)CCC` (stereo not shown) [Derivative 118]: the IC50 amounted to 2210 nM.

As to `COc1cccc2c1C(=O)c1c(O)c3c(c(O)c1C2=O)CC(O)(C(=O)CO)CC3OC1CC(N=CN(C)C(C)c2ccccc2)C(O)C(C)O1` (stereo not shown) [Derivative 122], the IC50 came out at 2530 nM.

On to `COc1cccc2c1C(=O)c1c(O)c3c(c(O)c1C2=O)CC(O)(C(=O)CO)CC3OC1CC(N=C(C)N2CCCC2)C(O)C(C)O1` (stereo not shown) [Derivative 123], for which the IC50 was 310 nM.

On to `COc1cccc2c1C(=O)c1c(O)c3c(c(O)c1C2=O)CC(O)(C(=O)CO)CC3OC1CC(N=C(C)N2CCCCC2)C(O)C(C)O1` (stereo not shown) [Derivative 127], for which the IC50 came out at 220 nM.

For the molecule `COc1cccc2c1C(=O)c1c(O)c3c(c(O)c1C2=O)CC(O)(C(=O)CO)CC3OC1CC(N=C(C)N2CCN(C)CC2)C(O)C(C)O1` (stereo not shown) [Derivative 131], the IC50 stood at 130 nM.

Turning to `CCN(CC)C(C)=NC1CC(OC2CC(O)(C(=O)CO)Cc3c(O)c4c(c(O)c32)C(=O)c2c(OC)cccc2C4=O)OC(C)C1O` (stereo not shown) [Derivative 135], the IC50 worked out at 1240 nM.

The record behind these values is patent US20090298786A1, “METHODS OF TREATING VIRAL INFECTIONS WITH ANTHRACYCLINE ANTIBIOTICS” (priority 2007, published 2009).
